Patent US7273848B2, “Apolipoprotein A-I agonists and their use to treat dyslipidemic disorders” (priority 1997, dated 2007)
Where “and” joins values, the source holds several entries; their conditions need not be identical. Equal values may be shown once. No end group written: not given here.

Key:
[1] = Superose 6 gel filtration chromatography of peptide-lipid complexes; format: physicochemical; details: peptide/DPPC complexes, 1 mg peptide and 3 mgs DPPC, colyophilized, in 0.9% NaCl
Description: An aliquot of the resulting reconstituted preparation can be characterized to confirm that the complexes in the preparation have the desired size distribution; e.g., the size distribution of HDL. Gel filtration chromatography can be used to this end. In the working examples described infra, a Pharmacia Superose 6 FPLC gel filtration chromatography system was used. The buffer used contains 150 mM NaCl in 50 mM phosphate buffer, pH 7.4. A typical sample volume is 20 to 200 microliters of complexes containing 5 mgs peptide/ml. The column flow rate is 0.5 mls/min. A series of proteins of known molecular weight and Stokes' diameter as well as human HDL are used as standards to calibrate the column. The proteins and lipoprotein complexes are monitored by absorbance or scattering of light of wavelength 254 or 280 nm.
Peptide-phospholipid complexes containing peptide 149 (SEQ ID NO:149) were prepared by colyophilization as described above. The preparation contained 1 mg peptide and 3 mgs DPPC by weight. […] The chromatography was monitored by absorbance or scattering of light of wavelength 280 nm. […] The vast majority of both phospholipid and UV absorbance were recovered together in a few fractions with peaks at approximately 15.8 mls. […]

HDL cholesterol = HDL cholesterol in rabbits after injection of phospholipid/peptide complex; format: in vivo, rabbit; details: for Increase in HDL Cholesterol (%): 8 mg/kg i.v. as peptide/DPPC complexes
Description: Small discoidal particles consisting of phospholipid (DPPC) and peptide 146 (SEQ ID NO:146) were prepared following the cholate dialysis method. The phospholipid was dissolved in chloroform and dried under a stream of nitrogen. The peptide was dissolved in buffer (saline) at a concentration of 1-2 mg/ml. The lipid film was redissolved in buffer containing cholate (43° C.) and the peptide solution was added at a 3-1 phospholipid/peptide ratio. The mixture was incubated overnight at 43° C. and then dialyzed at 43° C. (24 hr.), room temperature (24 hr.) and 4° C. (24 hr.), with three changes of buffer (large volumes) at temperature point. The complexes were filter sterilized (0.22μ) for injection and storage at 4° C.
Male New Zealand White rabbits (2.5-3 kg) were injected intravenously with a dose of phospholipid/peptide complex (8 mg/kg bodyweight peptide 146 (SEQ ID NO:146) or 10 mg/kg bodyweight ApoA-I, expressed as peptide or protein content) in a single bolus injection not exceeding 10-15 ml. The animals were slightly sedated before the manipulations. Blood samples (collected on EDTA) were taken before and 5, 15, 30, 60, 240 and 1440 minutes after injection. The hematocrit (Hct) was determined for each sample. Samples were aliquoted and stored at −20° C. before analysis.
Plasma Lipids. The total plasma cholesterol, plasma triglycerides and plasma phospholipids were determined enzymatically using commercially available assays according to the manufacturer's protocols (Boehringer Mannheim, Mannheim, Germany and Biomerieux, 69280, Marcy-l'étoile, France).
Lipoprotein Profiles. The plasma lipoprotein profiles of the fractions obtained after the separation of the plasma into its lipoprotein fractions were determined by spinning in a sucrose density gradient. The fractions were collected and in each individual fraction the phospholipid and cholesterol content was measured enzymatically.

| Sequence | Stokes' diameter [1] | duration of the increase in cholesterol of the HDL cholesterol fractions (HDL cholesterol; 8 mg/kg as peptide/DPPC complexes, apparent at 5 min.) | Increase in HDL Cholesterol (%) (HDL cholesterol; 5 min.) | Increase in HDL Cholesterol (%) (HDL cholesterol; 15 min.) | Increase in HDL Cholesterol (%) (HDL cholesterol; 60 min.) | Increase in HDL Cholesterol (%) (HDL cholesterol; 240 min., 8 mg/kg) | Increase in HDL Cholesterol (%) (HDL cholesterol; 1440 min.) | mobilization of peripheral cholesterol (in words) (HDL cholesterol; peptide/DPPC complexes 8 mg/kg) |
| --- | --- | --- | --- | --- | --- | --- | --- | --- |
| PVLELFENLWERLLDALQKKLK [peptide 149] | 87 Angstroms | – | – | – | – | – | – | – |
| PVLELFENLLERLLDALQKKLK [peptide 146] | – | approximately 24 hr | 31.3% | 60.4% | 42.9% | 90% and 90.2% | 71.2% | induces rapid and efficient mobilization of peripheral cholesterol |
